Measurements: the NIST ThermoML archive (doi:10.1016/j.jct.2015.08.011)

What was measured:
[1] = 101.33 kPa, Liquid, Vibrating tube method
[2] = excess molar enthalpy (molar enthalpy of mixing); xn = mol fraction of the nth substance listed; details: 298.15 K, 101 kPa, Liquid, Flow calorimetry

COC(C)(C)CC(C)(C)C [methyl 1,1,3,3-tetramethylbutyl ether]
[1]
Details	mass density [kg/m3]
298.15 K	792.4
308.15 K	784.1
318.15 K	776
328.15 K	767.6
338.15 K	759.2
348.15 K	750.7
358.15 K	742.1
368.15 K	733.4
378.15 K	724.5
388.15 K	715.5
398.15 K	706.3
408.16 K	696.8

COC(C)(C)CC(C)(C)C [methyl 1,1,3,3-tetramethylbutyl ether] + CO
[2]
Details	excess molar enthalpy [kcal/mol]
x2 = 0.051	0.0476
x2 = 0.097	0.0767
x2 = 0.193	0.11
x2 = 0.299	0.126
x2 = 0.391	0.128
x2 = 0.489	0.124
x2 = 0.591	0.112
x2 = 0.695	0.0966
x2 = 0.794	0.0736
x2 = 0.896	0.0425

CO [methanol]
Details	mass density [kg/m3]
[1], 298.15 K	786.2
